From PMC11580984 (bioRxiv, 2024)
Numbered stars: 1 amine (or outer) side, 2 acyl side, 3 side chain; on linkers, the order of the positions; unused ones are H or OH. Bridge positions count the residues as written; N and C are the ends. Square brackets hold non-standard residues; d marks the D form. Peptide text beside a SMILES is read from it. X1 = O=S(=O)(F)Oc1cc(C[*:1])cc(C[*:2])c1; X2 = Oc1cc(C[*:1])cc(C[*:2])c1; Pra = C#CC[C@H](N)C(=O)O

Tests used:
[1] = test system: interaction between Omicron BA2 spike and ACE2; assay type: binding, SARS-CoV-2
BSA = BSA (Bos taurus, UniProt P02769); assay type: binding; settings: highest concentration tested
Sequence of BSA (P02769 25-607): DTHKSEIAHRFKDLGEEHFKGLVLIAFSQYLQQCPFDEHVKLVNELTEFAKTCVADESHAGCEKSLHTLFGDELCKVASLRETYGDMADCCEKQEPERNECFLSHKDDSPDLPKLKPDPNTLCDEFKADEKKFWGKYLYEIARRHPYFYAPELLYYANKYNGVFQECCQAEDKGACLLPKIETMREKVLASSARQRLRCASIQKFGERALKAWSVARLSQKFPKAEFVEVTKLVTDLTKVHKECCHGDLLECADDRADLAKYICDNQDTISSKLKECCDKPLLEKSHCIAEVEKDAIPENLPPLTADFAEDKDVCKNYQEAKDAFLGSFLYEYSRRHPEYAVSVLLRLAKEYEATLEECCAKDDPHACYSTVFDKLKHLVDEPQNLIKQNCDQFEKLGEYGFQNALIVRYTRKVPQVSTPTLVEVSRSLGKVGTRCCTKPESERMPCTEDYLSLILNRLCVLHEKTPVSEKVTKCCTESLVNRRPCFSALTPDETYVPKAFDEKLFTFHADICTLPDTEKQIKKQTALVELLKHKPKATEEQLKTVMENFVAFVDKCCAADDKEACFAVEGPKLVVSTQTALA

SARS-CoV-2 omicron BA.2 = assay type: cell-based

Molecule | inhibition activity in MSD assay [1] | labeling of BSA (BSA) | antiviral activity (SARS-CoV-2 Omicron BA2) | antiviral activity (SARS-CoV-2 Omicron BA1) | antiviral activity (SARS-CoV-2 Omicron BA5) | change of inhibitory potency after 10-fold dilution (SARS-CoV-2 omicron BA.2) | EC50 (SARS-CoV-2 Omicron BA5)
C#CC[C@H](N)C(=O)N[C@@H](CCC(N)=O)C(=O)N[C@H]1CSCc2cc(cc(OS(=O)(=O)F)c2)CSC[C@@H](C(=O)NCC(N)=O)NC(=O)[C@H](CC(C)C)NC(=O)[C@H](C(C)C)NC(=O)[C@H](Cc2ccc(O)cc2)NC(=O)[C@H](CC(C)C)NC(=O)[C@H](CC(=O)O)NC(=O)[C@H](CCC(N)=O)NC(=O)[C@H](C(C)C)NC1=O [CP_SW3A] (H-[Pra]QCVQDLYVLCG-NH2; linker 3-11 via X1) | strong activity | only faint labeling | – | – | – | – | –
C#CC[C@H](N)C(=O)N[C@@H](CCC(N)=O)C(=O)N[C@H]1CSCc2cc(O)cc(c2)CSC[C@@H](C(=O)NCC(N)=O)NC(=O)[C@H](CC(C)C)NC(=O)[C@H](C(C)C)NC(=O)[C@H](Cc2ccc(O)cc2)NC(=O)[C@H](CC(C)C)NC(=O)[C@H](CC(=O)O)NC(=O)[C@H](CCC(N)=O)NC(=O)[C@H](C(C)C)NC1=O [CP_SW3A_Bz] (H-[Pra]QCVQDLYVLCG-NH2; linker 3-11 via X2) | – | – | only weak background activity | only weak background activity | only weak background activity | – | –
C#CC[C@H](N)C(=O)N[C@@H](CCC(N)=O)C(=O)N[C@H]1CSSC[C@@H](C(=O)NCC(N)=O)NC(=O)[C@H](CC(C)C)NC(=O)[C@H](C(C)C)NC(=O)[C@H](Cc2ccc(O)cc2)NC(=O)[C@H](CC(C)C)NC(=O)[C@H](CC(=O)O)NC(=O)[C@H](CCC(N)=O)NC(=O)[C@H](C(C)C)NC1=O [CP_SW3A_DS] (H-[Pra]QCVQDLYVLCG-NH2; disulfide 3-11) | – | – | – | – | – | dramatic loss of activity after dilution | –
C#CC[C@H](NC(=O)[C@H](CCC(N)=O)NC(=O)[C@@H]1CSCc2cc(cc(OS(=O)(=O)F)c2)CSC[C@H](NC(=O)CN)C(=O)N[C@@H](CC(C)C)C(=O)N[C@@H](C(C)C)C(=O)N[C@@H](Cc2ccc(O)cc2)C(=O)N[C@@H](CC(C)C)C(=O)N[C@@H](CC(=O)O)C(=O)N[C@@H](CCC(N)=O)C(=O)N[C@@H](C(C)C)C(=O)N1)C(N)=O [CP_SW3A_S1] (H-GCLVYLDQVCQ[Pra]-NH2; linker 2-10 via X1) | loss of inhibition activities | – | only weak background activity | only weak background activity | only weak background activity | – | –
C#CC[C@H](N)C(=O)N[C@@H](CCC(N)=O)C(=O)N[C@H]1CSCc2cc(cc(OS(=O)(=O)F)c2)CSC[C@@H](C(=O)NCC(N)=O)NC(=O)[C@H](C(C)C)NC(=O)[C@H](CCC(N)=O)NC(=O)[C@H](CC(=O)O)NC(=O)[C@H](CC(C)C)NC(=O)[C@H](Cc2ccc(O)cc2)NC(=O)[C@H](C(C)C)NC(=O)[C@H](CC(C)C)NC1=O [CP_SW3A_S2] (H-[Pra]QCLVYLDQVCG-NH2; linker 3-11 via X1) | loss of inhibition activities | – | only weak background activity | only weak background activity | only weak background activity | – | –
Sotrovimab: monoclonal antibody targeting the spike protein of SARS-CoV-2, positive control [reference compound] | – | – | – | – | – | – | 7 µM
